How the values were obtained:
[1] = biological target: T1, Type-1 angiotensin II receptor (Oryctolagus cuniculus, UniProt P34976); assay: In vitro binding affinity evaluated by its ability to displace the specific binding ligand 125I-SAR1, Ile8-AII from Angiotensin II receptor, type 1 in rabbit aorta membrane; assay type: cell membranes
T1 sequence (P34976 whole entry): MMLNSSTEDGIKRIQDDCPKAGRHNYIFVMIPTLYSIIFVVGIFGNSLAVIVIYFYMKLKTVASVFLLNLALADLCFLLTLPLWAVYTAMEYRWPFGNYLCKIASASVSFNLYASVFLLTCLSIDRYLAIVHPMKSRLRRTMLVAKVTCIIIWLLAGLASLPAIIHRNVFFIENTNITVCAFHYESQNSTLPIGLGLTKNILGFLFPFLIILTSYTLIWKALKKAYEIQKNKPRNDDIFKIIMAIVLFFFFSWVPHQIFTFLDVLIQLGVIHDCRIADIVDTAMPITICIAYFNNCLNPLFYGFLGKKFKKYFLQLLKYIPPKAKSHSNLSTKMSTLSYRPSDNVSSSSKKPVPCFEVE

Rattus norvegicus [2] = species on record: Rattus norvegicus; assay: Percent inhibition exceeded duration of 6 hours; assay type: functional
[3] = biological target: T2, Type-2 angiotensin II receptor (Rattus norvegicus, UniProt P35351); assay: In vitro binding affinity at AT2 receptor determined by its ability to displace the specific binding ligand [125I]-Sar1, Ile8-AII from rat brain membrane
T2 sequence (P35351 whole entry): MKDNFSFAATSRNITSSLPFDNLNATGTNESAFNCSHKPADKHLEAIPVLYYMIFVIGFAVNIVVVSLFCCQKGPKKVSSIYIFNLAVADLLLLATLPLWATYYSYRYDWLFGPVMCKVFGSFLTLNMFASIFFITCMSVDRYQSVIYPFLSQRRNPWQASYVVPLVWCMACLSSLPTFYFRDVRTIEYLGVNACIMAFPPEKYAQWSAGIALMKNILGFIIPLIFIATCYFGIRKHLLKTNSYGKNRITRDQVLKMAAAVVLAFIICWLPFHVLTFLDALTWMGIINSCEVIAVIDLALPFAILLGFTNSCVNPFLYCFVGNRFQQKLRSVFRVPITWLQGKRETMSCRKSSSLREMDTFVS

Rattus norvegicus [4] = assay: Dose required for more than 90% maximal inhibition of blood pressure response at iv bolus administration in conscious normotensive rats; assay type: functional

Row | Structure (SMILES) | IC50 [1] [nM] | Inhibition (Rattus norvegicus [2]) [%] | IC50 [3] [nM] | Dose (Rattus norvegicus [4]) [mg/kg]
1 | CCc1nc2c(C)cc(C)nn2c1Cc1ccc(-c2ccccc2NS(=O)(=O)C(F)(F)F)cc1 | 1.7 | – | – | –
2 | CCc1nc2c(C)cc(C)nn2c1Cc1ccc(-c2ccccc2S(=O)(=O)NC(=O)c2ccccc2)cc1 | 0.8 | – | – | –
3 | CCc1nc2c(C)cc(C)nn2c1Cc1ccc(-c2ccccc2-c2nn[nH]n2)cc1 | 5.7 | >30 | > 10 | 1
4 | CCc1nc2c(C)cc(C)nn2c1Cc1ccc(-c2ccccc2C(=O)O)cc1 | 83 | – | – | –

Reference: ChEMBL document CHEMBL1150006, “Synthesis of new imidazo[1,2-b]pyridazine isosteres of potent imidazo[4,5-b]pyridine angiotensin II antagonists” (Bioorg Med Chem Lett, 1994)
